Measurements taken from patent US20230105412A1, “5-HT3 RECEPTOR MODULATOR, THE CRYSTALLINE FORM, METHODS OF MAKING, AND USE THEREOF” (CHENGDU SCIMOUNT PHARMATECH CO., LTD., priority 2021, published 2023).
In brackets after ≈: the same amount, converted by molar mass.

Tests used:
Format in all cases: physicochemical
[1] = Organic slurry experiments (7 days, THF or IPA); settings: initial Form A
Procedure: Approximately 30 mg of the free form, mesylate, hydrochloride, succinate, glutamate, naphthoate and phosphate salts of formula (I) were weighed to individual HPLG vials equipped with a magnetic stir bar. Either THF or IPA was added to obtain a free flowing slurry. After seven days of ambient equilibration, solid from each slurry was obtained using centrifuge filtration with 0.45 μm nylon centrifuge filters, and dried at ambient temperature and ˜30 in Hg. After drying overnight, each was analyzed by XRPD to check for form conversion and ^1H-NMR for signs of degradation (Table 6).

[2] = Gravimetric water solubility by TGA; settings: deionized water, ambient, TGA gravimetric or visual dissolution, XRPD Form A
Procedure: The water solubility of select salts afforded from the 70 mg scale experiments was estimated using the following gravimetric method. Approximately 20 mg of each confirmed salt was weighed into a 2 mL HPLC vial. 50 μL increments of deionized H2O were then added to each vial along with a small magnetic stir bar. If dissolution was observed, the samples were stored in a hood overnight and examined the next day for precipitation. Samples affording slurries after a maximum of 250 μl of water were left stirring at ambient conditions overnight to equilibrate. These samples were then centrifuge filtered, and 50 μL of each saturated solution was aliquoted into tared TGA pans. On the TGA, each sample was heated and held at elevated temperature until all solvent was dried off. Resulting dry weight and aliquoted volume for each saturated solution was then utilized in estimating solubility. Refer to Table 3 for results of this study.

[3] = Gravimetric moisture sorption analysis; settings: for water adsorbed / hygroscopicity / behaviour at high relative humidity: Form A; for hygroscopicity: gravimetric moisture sorption; for XRPD of dried material following moisture sorption program: initial Form A; for behaviour at high relative humidity: above 80% RH (80% RH to 90% RH)
Procedure: The stability of each salt was assessed via room temperature slurries in organic solvent and water, storage at elevated temperature (60° C.), and exposure to elevated relative humidity by gravimetric moisture sorption. From the water slurries, the solubility of each salt was determined at ambient conditions.

[4] = Aqueous solubility study (water slurry, HPLC, pH, XRPD); settings: for pH: pH of supernatant of overnight water slurry; for XRPD (Form) after water slurry: solids after overnight room temperature water slurry, initial Form A
Procedure: Approximately 20 mg of the free form, mesylate, hydrochloride, succinate, glutamate, naphthoate and phosphate salts of formula (I) were weighed to individual HPLC vials equipped with a magnetic stir bar and 0.05 mL increments of deionized water added. If dissolution was observed, the approximate solubility was recorded. If no dissolution had occurred, the slurries were stirred overnight at ambient temperature. The supernatant from each slurry was obtained using centrifuge filters. Each solution was tested for pH and by HPLG versus a calibration curve (FIG. 6) to determine the equilibrium solubility. Solids obtained from the filtration were analyzed by XRPD to confirm the crystalline form (Table 4).

[5] = Stability at elevated temperature (60° C., 7 days); settings: for XRPD (Form) after elevated temperature: 60° C., 7 days, uncovered, ambient pressure, initial Form A
Procedure: Approximately 10 mg of the free form, mesylate, hydrochloride, succinate, glutamate, naphthoate and phosphate salts of formula (I) were weighed to individual 4 mL vials and stored uncovered in an oven at 60° C. and ambient pressure. After seven days of exposure, the solids were analyzed by XRPD to check for form conversion and ^1H-NMR for signs of degradation (Table 5).

[6] = Relative humidity study (95% RH); settings: five hours, Form A lot HAL-G-29(2)
Procedure: Approximately 30 mg of Form A mono-glutamate salt [lot HAL-G-29(2)] was stored uncovered in a small glass container in a desiccator containing an aqueous saturated solution of Na2HPO4.12H2O to achieve a relative humidity of 95%. After five hours of exposure the solid had deliquesced and the sample was exposed to the lab environment (20% RH) overnight. The resulting dried solid was characterized by XRPD, DSC, and TGA.
As presented above, Form B was obtained following moisture sorption analysis of Form A and subsequent drying. In an effort to generate additional Form B for further characterization, a brief humidity study was performed as described below: approximately 30 mg of Form A mono-glutamate salt [lot HAL-G-29(2)] was stored uncovered in a small glass container in a desiccator containing an aqueous saturated solution of Na2HPO4.12H2O to achieve a relative humidity of 95%.

SMILES	XRPD (Form) 7 Days ([1]; ambient slurry in IPA)	Estimated Water Solubility [2] [µg/mL]	hygroscopicity [3]	XRPD of dried material following moisture sorption program [3]	XRPD (Form) after elevated temperature [5]	also measured
O=C(O)c1ccc2ccccc2c1O [1-hydroxy-2-napthoic acid]	Form B	4700	moderately hygroscopic	Form B	Form B	water adsorbed ([3]; 60% RH): 1.5 wt %; water adsorbed ([3]; 90% RH): 2.5 wt %; water content during desorption ([3]; curve stabilized from 75%-55% RH): approximately 2.0 wt %; Aqueous Solubility ([4]; deionized water, ambient temperature, overnight slurry, HPLC or visual dissolution, initial XRPD Form A): 2300 µg/mL; pH [4]: 6.2; XRPD (Form) after water slurry [4]: Form C
O=C1CCC(C(=O)O)N1 (centres unmarked) [2-pyrrolidine-5-carboxylic acid]	no signs of conversion	–	relatively non-hygroscopic	Form B	no signs of conversion	behaviour at high relative humidity ([3]; listed as glutamate): deliquesced; behaviour at high relative humidity ([3]; listed as mono-glutamate salt): deliquescence; behaviour at 95% RH [6]: deliquesced; 1H-NMR, signs of degradation [5]: No
O=C1c2cccc3[nH]nc(c23)CCN1[C@@H]1CN2CCC1CC2 [Free Form, (S)-7-(quinuclidin-3-yl)-8,9-dihydro-2H-azepino[5,4,3-cd]indazol-6(7H)-one]	–	–	non hygroscopic	form conversion had not occurred	no signs of form conversion	solubility ([2]; thermodynamic from solid, read-out: Estimated Water Solubility): < 2500 µg/mL; water adsorbed ([3]; throughout the humidity program): less than 0.2 wt %; pH [4]: 9.3; XRPD (Form) after water slurry [4]: no change in crystalline form; solubility ([4]; thermodynamic from solid, deionized water, ambient temperature, overnight slurry, HPLC or visual dissolution, initial XRPD Form A): 2000 µg/mL (≈ 6.75 mM); 1H-NMR, signs of degradation [5]: No
Cl [Hydrochloric acid]	no signs of conversion	–	–	–	no signs of conversion	–

Second part, led by results:

XRPD (Form) 7 Days ([1]; ambient slurry in IPA)	Estimated Water Solubility [2] [µg/mL]	hygroscopicity [3]	XRPD of dried material following moisture sorption program [3]	XRPD (Form) after elevated temperature [5]	SMILES	also measured
–	≥80000	–	–	–	O=C(O)C[C@H](O)C(=O)O [L-Malic acid]	Estimated Water Solubility ([2]; listed as malate salt): 80000 µg/mL
–	–	moderately hygroscopic	no form conversion had occurred	no signs of conversion	CS(=O)(=O)O [Methanesulfonic acid]	XRPD (Form) 7 Days ([1]; ambient slurry in THF): no signs of conversion; water adsorbed ([3]; 80% RH): 4.6 wt %; water adsorbed ([3]; 90% RH): 8.8 wt %
no signs of conversion	–	–	–	no signs of conversion	O=P(O)(O)O [Phosphoric acid]	–
no signs of conversion	–	–	–	no signs of conversion	O=C(O)CCC(=O)O [Succinic acid]	–
–	17400	–	–	–	Cc1ccc(S(=O)(=O)O)cc1 [p-toluenesulfonic acid]	Estimated Water Solubility ([2]; listed as tosylate salt): 20300 µg/mL
